Earlier results as cited in patent publication US7442834B2, “Process suitable for industrial scale production of gabapentin” (priority 2006, dated 2008).

What was measured:
[1] = in vivo
[2] = from U.S. Pat. No. 6,518,456

Row | SMILES | LD50 (cytotoxicity) [1] [mg/kg] | isoelectric point (pH) [2]
1 | O=C1CC2(CCCCC2)CN1 [IV, 3,3-pentamethylenebutyrolactam] | 300 | –
2 | NCC1(CC(=O)O)CCCCC1 [gabapentin (I), 1-(aminomethyl)-1-cyclohexaneacetic acid] | > 8000 | 7.1-7.2
